Reference: patent US3978129A, “Alkenyl- and alkanylamines” (A. H. Robins Company, Incorporated, priority 1972, dated 1976)
Counter-ions that a name gives are not always drawn.

The compounds below were run on depressant effects of tetrabenazine (assay: Blocking the depressant effects induced in mice by intravenous tetrabenazine (modified Englehardt procedure, increased tetrabenazine dosage)). Conditions: Mus musculus, ip, compounds I.P.
Format: in vivo
Experimental: The compounds were administered to mice intraperitoneally and the effectiveness of the compounds in blocking the depressant effects which are induced in mice by intravenous administration of 2-oxo-3-isobutyl-9,10-di-methoxy-1,2,3,4,6,7-hexahydro-11-bh-benzo[a]quinolizine (tetrabenazine was determined. The procedure used was a modification of that given by Englehardt, E. L. et al, J. Med. Chem. 11 (2) : 325(1968) wherein tetrabenazine dosage is increased over the Englehardt procedure. The ED50 of the compounds tested in blocking the depressant activity of tetrabenazine are given in Table I.
`CN(C)CCC(=CCCBr)c1ccccc1` [Example 3, 6-Bromo-N,N-dimethyl-N,N-dimethyl-3-hexenylamine Hydrobromide] showed an ED50 of 1.9 mg/kg. For `CN(C)CCC(CCCCl)c1ccccc1` (centres unmarked) [Example 8, 6-Chloro-N,N-dimethyl-3-phenylhexylamine Hydrochloride], the ED50 was 3.6 mg/kg. In the case of `CN(C)CCC(=CCCCl)c1ccccc1` [Example 1, 6-Chloro-N,N-dimethyl-3-phenyl-3-hexenylamine Hydrochloride], the ED50 is reported as 2.5 mg/kg. With `CN(C)CCCC(=CCCCl)c1ccccc1` [Example 4, 7-Chloro-N,N-dimethyl-4-phenyl-4-heptenylamine Oxalate] the ED50 was 20 mg/kg. In the case of `CN(C)CC=C(CCCBr)c1ccccc1` [Example 2, 6-Bromo-N,N-dimethyl-3-phenyl-2-hexenylamine Hydrobromide], the ED50 is reported as 0.5 mg/kg. In the case of `CN(C)CCC(=CCCCl)c1cccc(C(F)(F)F)c1` [Example 7, 6-Chloro-N,N-dimethyl-3-(3-trifluoromethylphenyl)-3-hexenylamine Oxalate], the ED50 is reported as 15.5 mg/kg. Work on `COc1ccc(C(=CCCCl)CCN(C)C)cc1` [Example 6, 6-Chloro-N,N-dimethyl-3-(4-methoxyphenyl)-3-hexenylamine Hydrochloride] yielded an ED50 of 28.5 mg/kg. For `CN(C)CCC=C(CCCCl)c1ccccc1` [Example 5, 7-Chloro-N,N-dimethyl-4-phenyl-3-heptenylamine Oxalate], the ED50 was 10 mg/kg.
